Test results from patent publication US20240415878A1, “Compositions and Methods for Modulating Mitochondrial Function” (Board of Regents, The University of Texas System, priority 2021, published 2024).

Legend:
hepatocytes = test: Cellular uptake assay (GFAAS, Co normalised to protein); assay type: in vitro ADME, murine; details: intact hepatocytes
Method: Cellular uptake assay. Hepatocytes were treated with varying doses of CPACC for 30 minutes, cells were washed in Ca^2+ and Mg^2+ free DPBS, and cell pellets flash-frozen. Pellets were suspended in ice cold lysis buffer (0.1% Triton X-100 and 0.2% HNO3 in ultrapure water). The suspension was vortexed for 30 s and incubated on ice for 45 min. The cell lysate was centrifuged, and the supernatant was transferred to a clean tube prior to analysis. The Co^3+ content of the lysate was determined using graphite furnace atomic absorption spectroscopy (GFAAS) and was normalized to the protein content of the sample, which was determined using the bicinchoninic acid (BCA) assay kit following manufacturer instructions (ThermoFisher). Results are reported as the average mass ratio of Co to protein (pg/μg) in each sample±SEM.

Mrs2 = target: T1, Mrs2 (Mus musculus, UniProt Q5NCE8); test: Mrs2 inhibition in intact hepatocytes loaded with Mag-Green-AM, confocal, L-lactate stimulation; assay type: cell-based, murine; details: 5 μM
T1 construct: endogenous in cells; host or cells: primary murine hepatocytes (C57BL/6J mice)
T1 sequence (Q5NCE8 54-434): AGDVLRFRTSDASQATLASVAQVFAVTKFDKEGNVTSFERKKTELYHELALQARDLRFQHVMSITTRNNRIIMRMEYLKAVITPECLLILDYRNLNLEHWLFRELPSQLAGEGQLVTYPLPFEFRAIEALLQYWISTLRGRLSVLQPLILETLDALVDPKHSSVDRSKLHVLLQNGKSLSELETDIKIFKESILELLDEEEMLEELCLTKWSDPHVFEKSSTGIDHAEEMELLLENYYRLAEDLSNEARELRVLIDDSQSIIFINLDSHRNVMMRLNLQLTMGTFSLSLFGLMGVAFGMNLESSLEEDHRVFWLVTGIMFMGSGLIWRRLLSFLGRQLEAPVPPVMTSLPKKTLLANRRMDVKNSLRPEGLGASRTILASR
Method: Bacterial CorA forms a pentameric complex that selectively drives Mg2+ uptake in an electrogenic manner. […] Mrs2 is the eukaryotic homologue of CorA and contains two transmembrane domains with a well-conserved F/Y-G-M-N motif; therefore, CorA blockers were tested to determine if they alter Mrs2-mediated mMg^2+ uptake (Moomaw and Maguire, 2008). Digitonin permeabilized hepatocytes were utilized to measure the inhibitory effect and determine its IC50. Permeabilized cells were treated with CPACC followed by a 1 mM bolus of MgCl2 (FIG. 10B). A 1 mM Mg^2+ bolus was added after baseline recording, and the extramitochondrial Mg^2+ clearance was used as a read-out for Mrs2-mediated mMg^2+ uptake using Mag-Green as a Mg^2+ indicator. […] We next investigated Mrs2 inhibition in intact hepatocytes loaded with Mag-Green-AM. […] Next CPACC was examined to determine if it had any effect on MCU-mediated mCa^2+ uptake in permeabilized cells. […] The availability of the compound to intact cells was measured using graphite furnace atomic absorption spectroscopy (GFAAS) and bicinchoninic acid in parallel. […] Encouraged by the potent inhibitory effect of CPACC and cellular permeability, we next measured the cytotoxicity of CPACC in cells. […]
Evaluation of dose dependent Mrs2 inhibition by confocal live cell imaging system. […] Data was quantified using Leica Application Suite X.

WT hepatocytes = test: Mitochondrial oxygen consumption rate and extracellular acidification rate (Seahorse); assay type: cell-based, murine
Method: CPACC treatment enhances adipose browning and lowers whole body weight. Given the potent mMg^2+ uptake inhibiting properties and low toxicity of CPACC, we hypothesized that CPACC could mimic Mrs2^−/− cellular phenotype. WT hepatocytes isolated from over 12 months old mice were treated with 50 μM CPACC for 48 hours. Control and CPACC treated hepatocytes were stained with BODIPY and TMRE for intracellular tracing using confocal imaging. […] Next it was determined if CPACC treatment affects the mitochondrial oxygen consumption rate. Freshly isolated WT hepatocytes were treated with 5-25 μM concentrations of CPACC for 16 hours before measurement of oxygen consumption rate. […] Since it was observed an enhancement of basal OCR in CPACC treated hepatocytes, the extracellular acidification rate was measured in control and CPACC treated hepatocytes and found it to be higher in the CPACC condition indicating higher glycolytic activity (FIG. 11G). […]
Mitochondrial oxygen consumption rate. […] Oxygen consumption rate (OCR) was measured at 37° C. in an XF96 extracellular flux analyzer (Seahorse Bioscience, Agilent) calibrated using Seahorse XF Calibrant solution (Seahorse Bioscience, Agilent) in a CO2-free incubator overnight. […] Data was collected using Agilent Seahorse Wave 2.6.1 Desktop software and analyzed using GraphPad Prism version 8 (Irrinki et al., 2011; Tomar et al., 2016).

**Q.** [NH2][Co]([NH2])([NH2])([NH2])([NH2])[Cl] [CPACC, chloropentaammine cobalt (III) chloride] was tested. Which “cellular accumulation of the compound (intracellular Co)” value (hepatocytes) did it give?
**A.** The value was “accumulates in the cell in a dose-dependent manner”.

**Q.** What about the “Mitochondrial Mg^2+ uptake following L-lactate stimulation” value (Mrs2) of the same compound?
**A.** The value was “significantly inhibited”.

**Q.** What about the “maximal OCR” value (WT hepatocytes; 5-25 μM, 16 hours) of the same compound?
**A.** Its value is “without a significant effect”.

**Q.** What about the extracellular acidification rate (WT hepatocytes; treated versus control hepatocytes) of the same compound?
**A.** The extracellular acidification rate was “higher”.
